How the values were obtained:
[1] = test system: genotype 1b-Con1 subgenomic replicon cell line; experiment: HCV Polymerase Replicon Assay, genotype 1b-Con1 (luciferase reporter); type: cell-based; settings: Hepatitis C virus, 72 h; replicon 1b-Con1, luciferase, three days; read-out: EC50 1b
[2] = test system: genotype 1a-H77 subgenomic replicon cell line; experiment: HCV Polymerase Replicon Assay, genotype 1a-H77 (luciferase reporter); type: cell-based; settings: Hepatitis C virus, 72 h; replicon 1a-H77, luciferase, three days; read-out: EC50 1a
[3] = target: T1, HCV polymerase 1A (Δ21 NS5B, H77) (Hepatitis C virus genotype 1a, UniProt P27958); experiment: biochemical
T1 construct: 20 to 50 nM Δ21 NS5B
Method in brief: (§1)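 Δ21 NS5B (20–50 nM) was preincubated with inhibitor, 60–125 μM GTP and 2 mM MnCl2 (pH 7.4) for 15 min at RT. RNA synthesis on 5 nM template with 20 μM CTP/ATP and 1 μM ³H-UTP ran 2–4 h at RT. Spermine-precipitated RNA was filter-counted, and IC50 was fit with a tight-binding equation.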

[4] = target: T2, HCV polymerase 1B (Δ21 NS5B, HCV Strain 1B BK) (Hepatitis C virus genotype 1b, UniProt P26663); experiment: biochemical
T2 construct: 20 to 50 nM Δ21 NS5B
Method in brief: as §1

T1 sequence (P27958 2421-2990, stated change not applied): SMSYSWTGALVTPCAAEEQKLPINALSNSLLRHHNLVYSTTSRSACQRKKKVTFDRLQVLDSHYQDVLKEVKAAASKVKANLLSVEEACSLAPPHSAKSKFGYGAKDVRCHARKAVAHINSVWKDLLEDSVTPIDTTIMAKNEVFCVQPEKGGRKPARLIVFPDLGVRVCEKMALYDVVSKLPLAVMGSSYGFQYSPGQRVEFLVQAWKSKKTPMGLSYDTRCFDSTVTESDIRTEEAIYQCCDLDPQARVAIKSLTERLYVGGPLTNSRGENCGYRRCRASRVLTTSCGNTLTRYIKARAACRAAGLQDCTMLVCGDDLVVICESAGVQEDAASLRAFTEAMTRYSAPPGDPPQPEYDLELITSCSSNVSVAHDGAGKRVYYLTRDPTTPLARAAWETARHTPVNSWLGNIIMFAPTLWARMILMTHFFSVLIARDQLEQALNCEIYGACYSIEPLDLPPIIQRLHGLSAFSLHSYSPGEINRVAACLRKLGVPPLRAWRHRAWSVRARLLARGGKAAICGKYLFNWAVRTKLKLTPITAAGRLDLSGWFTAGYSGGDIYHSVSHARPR
T2 sequence (P26663 2420-2989, stated change not applied): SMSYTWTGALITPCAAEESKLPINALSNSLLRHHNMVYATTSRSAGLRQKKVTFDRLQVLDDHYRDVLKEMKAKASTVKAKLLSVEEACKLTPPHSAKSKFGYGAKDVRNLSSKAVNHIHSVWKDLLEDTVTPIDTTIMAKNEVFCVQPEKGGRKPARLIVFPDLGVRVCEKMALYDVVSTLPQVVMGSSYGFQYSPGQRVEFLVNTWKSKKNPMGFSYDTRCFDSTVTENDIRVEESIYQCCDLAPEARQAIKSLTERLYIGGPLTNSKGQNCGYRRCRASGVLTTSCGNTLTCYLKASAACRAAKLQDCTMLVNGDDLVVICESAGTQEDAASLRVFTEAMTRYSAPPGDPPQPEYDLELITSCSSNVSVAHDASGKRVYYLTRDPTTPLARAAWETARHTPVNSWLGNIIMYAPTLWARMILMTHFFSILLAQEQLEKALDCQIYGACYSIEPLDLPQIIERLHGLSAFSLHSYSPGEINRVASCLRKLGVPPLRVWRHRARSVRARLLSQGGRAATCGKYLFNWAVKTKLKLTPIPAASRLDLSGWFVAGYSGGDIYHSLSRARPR

Row | Structure (SMILES) | EC50 [1] [nM] | EC50 [2] [nM] | IC50 [3] [nM] | IC50 [4] [nM]
1 | COc1c(/C=C/c2ccc(NS(C)(=O)=O)cc2)cc(-n2ccc(=O)[nH]c2=O)cc1-c1ccco1 [IB-L1-1.46, (E)-N-(4-(5-(2,4-dioxo-3,4-dihydropyrimidin-1(2H)-yl)-3-(furan-2-yl)-2-methoxystyryl)phenyl)methanesulfonamide] | < 10 | 100 to 1000 | 10 to 100 | 10 to 100
2 | COc1c(/C=C/c2ccc(NS(C)(=O)=O)cc2)cc(-n2ccc(=O)[nH]c2=O)cc1-c1ccsc1 [IB-L1-1.47, (E)-N-(4-(5-(2,4-dioxo-3,4-dihydropyrimidin-1(2H)-yl)-2-methoxy-3-(thiophen-3-yl)styryl)phenyl)methanesulfonamide] | 10 to 100 | 100 to 1000 | 10 to 100 | 10 to 100
3 | COc1c(/C=C/c2ccc(NS(C)(=O)=O)cc2)cc(-n2ccc(=O)[nH]c2=O)cc1-c1cccs1 [IB-L1-1.48, (E)-N-(4-(5-(2,4-dioxo-3,4-dihydropyrimidin-1(2H)-yl)-2-methoxy-3-(thiophen-2-yl)styryl)phenyl)methanesulfonamide] | < 10 | 100 to 1000 | 10 to 100 | 10 to 100
4 | COc1c(/C=C/c2ccc(NS(C)(=O)=O)cc2)cc(-n2ccc(=O)[nH]c2=O)cc1S(C)(=O)=O [IB-L1-1.49, (E)-N-(4-(5-(2,4-dioxo-3,4-dihydropyrimidin-1(2H)-yl)-2-methoxy-3-(methylsulfonyl)styryl)phenyl)methanesulfonamide] | > 1000 | > 1000 | 10 to 100 | 100 to 1000
5 | COc1c(/C=C/c2ccc(NS(C)(=O)=O)cc2)cc(-n2ccc(=O)[nH]c2=O)cc1-c1ccoc1 [IB-L1-1.50, (E)-N-(4-(5-(2,4-dioxo-3,4-dihydropyrimidin-1(2H)-yl)-3-(furan-3-yl)-2-methoxystyryl)phenyl)methanesulfonamide] | 10 to 100 | 100 to 1000 | 10 to 100 | 10 to 100
6 | COc1c(I)cc(-n2ccc(=O)[nH]c2=O)cc1/C=C/c1ccc(NS(C)(=O)=O)cc1 [IB-L1-1.51, (E)-N-(4-(5-(2,4-dioxo-3,4-dihydropyrimidin-1(2H)-yl)-3-iodo-2-methoxystyryl)phenyl)methanesulfonamide] | 10 to 100 | > 1000 | 10 to 100 | 10 to 100
7 | COc1c(Br)cc(-n2ccc(=O)[nH]c2=O)cc1/C=C/c1ccc(NS(C)(=O)=O)cc1 [IB-L1-1.52, (E)-N-(4-(3-bromo-5-(2,4-dioxo-3,4-dihydropyrimidin-1(2H)-yl)-2-methoxystyryl)phenyl)methanesulfonamide] | 100 to 1000 | > 1000 | 100 to 1000 | 100 to 1000
8 | COC(=O)c1cc(NS(C)(=O)=O)ccc1CCc1cc(-n2ccc(=O)[nH]c2=O)cc(C(C)(C)C)c1OC [IB-L5-2-1.1, methyl 2-(3-tert-butyl-5-(2,4-dioxo-3,4-dihydropyrimidin-1(2H)-yl)-2-methoxyphenethyl)-5-(methylsulfonamido)benzoate] | < 10 | 10 to 100 | < 10 | 10 to 100
9 | COc1c(CCc2ccc(NS(C)(=O)=O)cc2)cc(-n2ccc(=O)[nH]c2=O)cc1C(C)(C)C [IB-L5-2-1.2, N-(4-(3-tert-butyl-5-(2,4-dioxo-3,4-dihydropyrimidin-1(2H)-yl)-2-methoxyphenethyl)phenyl)methanesulfonamide] | 10 to 100 | 100 to 1000 | 10 to 100 | 10 to 100

Source: patent US8178548B2, “Anti-infective agents and uses thereof” (priority 2007, dated 2012)
